{
  "source": "patent US11771634B2",
  "about": "“Antimicrobial antifungal composition” (GODREJ INDUSTRIES LIMITED, priority 2021, dated 2023)",
  "key": {"M. furfur [1]": {"test_system": "M. furfur", "assay": "Anti-dandruff efficacy, zone of inhibition", "assay_type": "cell-based, Malassezia furfur", "from_the_text": "Comparison of Anti-Dandruff Efficacy Against M. furfur"}, "[2]": {"test_system": "gm +ve and gm −ye micro-organism", "assay": "Antibacterial efficacy by MIC, overall conclusion", "assay_type": "cell-based", "description": "(§1) The minimum inhibitory concentration (MIC) of an antibacterial is the maximum dilution of the product that will still inhibit the growth of a test microorganism. In Tube/Plate dilution method, serial dilutions of the products are made in bacterial growth media, incubated, and scored for growth. It was determined by Tube/Plate method."}, "M. furfur [3]": {"test_system": "M. furfur", "assay": "Time kill method (ASTM E 2315-16)", "assay_type": "cell-based, Malassezia furfur", "conditions": "1% AI", "from_the_text": "Time Kill Method (at 1% AI) Against Test Organism M. furfur."}, "Escherichia coli": {"test_system": "Escherichia coli", "assay": "MIC by Tube/Plate dilution method", "assay_type": "cell-based", "description": "as §1"}, "Ps. aeruginosa": {"test_system": "Ps. aeruginosa", "assay": "MIC by Tube/Plate dilution method", "assay_type": "cell-based", "description": "as §1"}, "Candida albicans": {"test_system": "Candida albicans", "assay": "MIC by Tube/Plate dilution method", "assay_type": "cell-based", "description": "as §1"}, "Staph. aureus": {"test_system": "Staph. aureus", "assay": "MIC by Tube/Plate dilution method", "assay_type": "cell-based", "description": "as §1"}},
  "data": [
    {"compound": "C=CCCCCCCCCC(=O)NCCC[N+](C)(C)CC(O)COP(=O)([O-])OCC(O)C[N+](C)(C)CCCNC(=O)CCCCCCCCC=C.[Cl-]", "note": "(stereo not drawn) [UDAP PB, Undecylenamidopropyl PG-Dimonium Chloride Phosphate]", "values": [
      {"measurement": "Comments (zone of inhibition)", "setting": "M. furfur [1]; Active Conc. 1%", "result": "Effective"},
      {"measurement": "Zone of Inhibition (ZOI)", "setting": "M. furfur [1]; Active Conc. 1%", "result": 28, "unit": "mm"},
      {"measurement": "Comments (zone of inhibition)", "setting": "M. furfur [1]; Active Conc. 2%", "result": "Effective"},
      {"measurement": "Zone of Inhibition (ZOI)", "setting": "M. furfur [1]; Active Conc. 2%", "result": 33, "unit": "mm"},
      {"measurement": "Antibacterial efficacy", "setting": "[2]", "result": "effective antibacterial"},
      {"measurement": "Antimicrobial Activity Log Reduction", "setting": "M. furfur [3]; exposure time 1 minute", "result": ">4.19", "unit": "Log"},
      {"measurement": "Antimicrobial Activity Percentage reduction", "setting": "M. furfur [3]; exposure time 1 minute", "result": ">99.99", "unit": "%"},
      {"measurement": "Count of Test Organism After Exposure CFU/ml", "setting": "M. furfur [3]; exposure time 1 minute", "result": "<10", "unit": "CFU/ml"},
      {"measurement": "Count of Test Organism After Exposure Log", "setting": "M. furfur [3]; exposure time 1 minute", "result": "<1", "unit": "Log"},
      {"measurement": "Antimicrobial Activity Log Reduction", "setting": "M. furfur [3]; exposure time 5 minutes", "result": ">4.19", "unit": "Log"},
      {"measurement": "Antimicrobial Activity Percentage reduction", "setting": "M. furfur [3]; exposure time 5 minutes", "result": ">99.99", "unit": "%"},
      {"measurement": "Count of Test Organism After Exposure CFU/ml", "setting": "M. furfur [3]; exposure time 5 minutes", "result": "<10", "unit": "CFU/ml"},
      {"measurement": "Count of Test Organism After Exposure Log", "setting": "M. furfur [3]; exposure time 5 minutes", "result": "<1", "unit": "Log"},
      {"measurement": "MIC", "setting": "Escherichia coli", "result": "<300", "unit": "ppm"},
      {"measurement": "MIC", "setting": "Ps. aeruginosa", "result": "<700", "unit": "ppm"},
      {"measurement": "MIC", "setting": "Candida albicans", "result": "<200", "unit": "ppm"},
      {"measurement": "MIC", "setting": "Staph. aureus", "result": "<300", "unit": "ppm"},
      {"measurement": "Zein Number (ZN)", "setting": "zein (corn protein)", "result": 36, "unit": "mg N/100 mL"}
    ]},
    {"compound": "zinc pyrithione [ZnPTO, reference compound]", "values": [
      {"measurement": "Comments (zone of inhibition)", "setting": "M. furfur [1]; Active Conc. 1%", "result": "Effective"},
      {"measurement": "Zone of Inhibition (ZOI)", "setting": "M. furfur [1]; Active Conc. 1%", "result": 34, "unit": "mm"},
      {"measurement": "Comments (zone of inhibition)", "setting": "M. furfur [1]; Active Conc. 2%", "result": "Effective"},
      {"measurement": "Zone of Inhibition (ZOI)", "setting": "M. furfur [1]; Active Conc. 2%", "result": 41, "unit": "mm"},
      {"measurement": "Antimicrobial Activity Log Reduction", "setting": "M. furfur [3]; exposure time 1 minute", "result": ">3.95", "unit": "Log"},
      {"measurement": "Antimicrobial Activity Percentage reduction", "setting": "M. furfur [3]; exposure time 1 minute", "result": ">99.98", "unit": "%"},
      {"measurement": "Count of Test Organism After Exposure CFU/ml", "setting": "M. furfur [3]; exposure time 1 minute", "result": "<10", "unit": "CFU/ml"},
      {"measurement": "Count of Test Organism After Exposure Log", "setting": "M. furfur [3]; exposure time 1 minute", "result": "<1", "unit": "Log"},
      {"measurement": "Antimicrobial Activity Log Reduction", "setting": "M. furfur [3]; exposure time 5 minutes", "result": ">3.95", "unit": "Log"},
      {"measurement": "Antimicrobial Activity Percentage reduction", "setting": "M. furfur [3]; exposure time 5 minutes", "result": ">99.98", "unit": "%"},
      {"measurement": "Count of Test Organism After Exposure CFU/ml", "setting": "M. furfur [3]; exposure time 5 minutes", "result": "<10", "unit": "CFU/ml"},
      {"measurement": "Count of Test Organism After Exposure Log", "setting": "M. furfur [3]; exposure time 5 minutes", "result": "<1", "unit": "Log"}
    ]}
  ]
}
